Results as given in patent publication US20260285810A1, “CRYSTAL FORM OF MUSCARINE ANTAGONIST, METHOD FOR PREPARING SAME, AND USE THEREOF” (SICHUAN KELUN PHARMACEUTICAL RESEARCH INSTITUTE CO., LTD., priority 2023, published 2026).

Tests used:
Assay type in all cases: physicochemical
[1] = Particle size distribution (Malvern Mastersizer 3000); details: Example 1 batch; dispersion solvent water
Protocol: Test method: The particle type is set as non-spherical, the particle refractive index is 1.52, the particle absorption rate is 0.001, and the rotation speed is 1800 rpm; the obscuration is 2%-15%, the sample background test time is 10 seconds, the dispersion solvent is water, the dispersant refractive index is 1.330, and the stabilization time is about 30 seconds; the number of tests is 3.

[2] = Accelerated and long-term storage, crystal form by XRPD
Protocol: The packaged samples were stored under conditions of 30° C./35% RH and 40° C./75% RH, and collected and investigated for crystal forms at day 0, 3 months, and 6 months, respectively.

[3] = Influencing factors stability: high temperature, high humidity, illumination, accelerated conditions (XRPD, HPLC purity); details: for remaining at 840 h: solid state
Description: Samples were collected and tested for XRPD and HPLC purity at day 0, day 5, day 10, and day 35, respectively.

[4] = Temperature- and humidity-mediated crystal transformation (XRPD, HPLC purity, KF water content)
Protocol: (§1) The XRPD pattern of the crystal form is collected using an X'Pert3 Powder diffractometer, which uses Cu […] irradiation and performs detection using Absolute scan at room temperature. The detection range is from 3.5° to 40°, with a step size of 0.013°, a dwell time of 50 s, and one scan.
Samples 1 and 2 were tested for XRPD, HPLC purity, and KF water content.

[5] = Drying of wet crystal product with Karl Fischer water content and XRPD testing; details: drying at 30° C.-35° C., vacuum
Protocol: as §1
The wet crystal product of Example 1 was dried under conditions of a temperature of 30° C.-35° C. and a vacuum degree of −0.08 Mpa. During the drying, the samples were collected for Karl Fischer water content testing and XRPD.

[6] = Angle of repose (powder comprehensive characteristic tester); details: Example 1 batch
Protocol: The powder falls through the funnel to form a cone, and then the angle between the inclined plane and the horizontal plane is determined. The test is repeated in triplicate.

[7] = Dynamic vapor sorption (DVS) evaluation; details: DVS 25° C.
Protocol: The DVS pattern of the crystal form is tested using a DVS Intrinsic (SMS) at a test temperature of 25° C. and detected in cycle-DMDT mode.
Dynamic vapor sorption curve (also referred to as adsorption-desorption characteristic curve) was evaluated using a DVS Intrinsic (SMS). Approximately 30 mg of the sample prepared in Example 1 was subjected to a three-stage programmed scanning method at room temperature (25° C.) as follows: the first-stage hygroscopicity program involving a stepwise increase in relative humidity from 60% RH to 90% RH, with a relative humidity change rate of 10% RH/step; the second-stage hygroscopicity program involving a stepwise decrease in relative humidity from 90% RH to 0% RH, with a relative humidity change rate of 10% RH/step; and the third-stage hygroscopicity program involving a stepwise increase in relative humidity from 0% RH to 90% RH, with a relative humidity change rate of 10% RH/step. The mass change rate mode (dm/dt mode) was used, where when the mass change rate (dm/dt) was ≤0.005%, the instrument program controlled the switching of the relative humidity (RH) to the next stage and maintained constant humidity (+/−10% RH).

[8] = Hygroscopic weight gain on storage at 80% humidity for 24 hours; details: stored under a humidity condition of 80%+2% for 24 hours
[9] = Bulk density and tap density (powder density tester); details: Example 1 batch
Protocol: The top surface is carefully leveled, and the apparent volume is recorded. The cylinder is then placed on the powder density tester and shaken at a frequency of 1250. The taped volume is recorded, and then the tap density is calculated. The same batch of samples is tested three times in parallel.

[10] = Illumination at 25° C. (4500 lx), day 35
[11] = day 0, Example 3 batch, packaged
[12] = before/after drying (30° C., vacuum, humidity ≤20%, 24 h) and re-storage (RH 60%-80%, 25° C.-30° C., 24 h)

particle size D10 [1]: 8.40 μm
particle size D50 [1]: 25.86 μm
particle size D90 [1]: 53.59 μm
crystal form ([2]; 30° C./35% RH, 6 months): Crystal form A
crystal form ([2]; 30° C./35% RH, day 0): Crystal form A
crystal form ([2]; 40° C./75% RH, 3 months): Crystal form A
crystal form ([2]; 40° C./75% RH, 6 months): Crystal form A
crystal form ([2]; 40° C./75% RH, day 0): Crystal form A
XRPD crystal form ([3]; 40° C., day 5): form A
XRPD crystal form ([3]; 40° C., day 10): form A
XRPD crystal form ([3]; 40° C., day 35): Crystal form A
XRPD crystal form ([3]; 40° C./75% RH, day 5): form A
XRPD crystal form ([3]; 40° C./75% RH, day 10): form A
XRPD crystal form ([3]; 40° C./75% RH, day 35): Crystal form A
XRPD crystal form ([3]; 92.5% RH (25° C.), day 5): form A
XRPD crystal form ([3]; 92.5% RH (25° C.), day 10): form A
XRPD crystal form ([3]; 92.5% RH (25° C.), day 35): Crystal form A
XRPD crystal form ([3]; Illumination at 25° C. (4500 lx), day 5): form A
XRPD crystal form ([3]; Illumination at 25° C. (4500 lx), day 10): form A
XRPD crystal form [3, 10]: Crystal form A
Purity (HPLC) [3, 11]: Purity: 99.87%
XRPD crystal form [3, 11]: form A
crystal form on exposure to stress conditions ([3]; high temperature (40° C.), high humidity (92.5% RH), illumination and accelerated (40° C./75% RH) conditions): remains unchanged
remaining at 840 h ([3]; 40° C., day 35): 99.9%
remaining at 840 h ([3]; 40° C./75% RH, day 35): 99.9%
remaining at 840 h ([3]; 92.5% RH (25° C.), day 35): 99.9%
remaining at 840 h [3, 10]: 99.9%
HPLC % [4, 12]: 99.79%
KF/water content [4, 12]: 9.1%
XRPD [4, 12]: Crystal form A
chemical purity of the crystal form ([4]; during the temperature- and humidity-mediated mutual transformation of crystal forms): remains unchanged
crystal form (XRPD) ([5]; KF water content=7.1%): mixed crystals
crystal form (XRPD) ([5]; KF water content=8.3%): crystal form A
crystal form (XRPD) ([5]; KF water content=8.9%): crystal form A
crystal form (XRPD) ([5]; KF water content=17%): crystal form A
powder angle of repose [6]: 45 °
hygroscopic weight gain ([7]; humidity increased from 60% RH to 90% RH, sample of Example 1): < 0.4%
hygroscopic weight gain ([7]; within the range of 30%-90% RH, sample of Example 1): < 2%
crystal form of the samples collected during the DVS process ([7]; sample of Example 1): remains unchanged
hygroscopic weight gain [8]: < 2%
bulk density [9]: 0.285 g/mL
tap density [9]: 0.494 g/mL
Compound: CN(CCN1CCC(OC(=O)Nc2ccccc2-c2ccccc2)CC1)C(=O)c1ccc(CN2CCC(C(N)=O)CC2)cc1 [crystal form A of revefenacin]
crystal form and crystallinity ([2]; 3-month and 6-month storage under the accelerated condition (40° C./75% RH)): remains unchanged in both crystal form and crystallinity
crystal form and crystallinity ([2]; long-term conditions (30° C./35% RH) for 6 months): remains unchanged in both crystal form and crystallinity
DVS curve characteristics ([7]; sample of Example 1, FIG. 5): reversible adsorption/desorption characteristics and low hygroscopicity
